The results in this text go back to the supplement of paper PMC10307832.

Assay in all cases: relative viability (nuclei count vs DMSO), 5 days (fraction); higher = more cells survive
Compound in the assay “Motesanib + Palbociclib”: CC1(C)CNc2cc(NC(=O)c3cccnc3NCc3ccncc3)ccc21 [Motesanib] + CC(=O)c1c(C)c2cnc(Nc3ccc(N4CCNCC4)cn3)nc2n(C2CCCC2)c1=O [Palbociclib] (partner 0.5 µM)
The procedure, abridged:
(§1)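 Lung cancer cell lines, seeded in 1536-well plates, were treated the following day by pin tool with a single drug or with five library-drug doses (not always all listed) in √10 steps on top of a fixed anchor-drug dose. Cells were fixed and nuclei stained in one step after 5 days, and nuclei were counted. Relative viability is the nuclei count for treated wells divided by that for vehicle wells, reported as medians of duplicate plates.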

Compound in the assay “Motesanib + Tozasertib”: CC1(C)CNc2cc(NC(=O)c3cccnc3NCc3ccncc3)ccc21 [Motesanib] + Cc1cc(Nc2cc(N3CCN(C)CC3)nc(Sc3ccc(NC(=O)C4CC4)cc3)n2)n[nH]1 [Tozasertib] (partner 0.1 µM)
The procedure, abridged:
as §1

Compound in a further assay: CC1(C)CNc2cc(NC(=O)c3cccnc3NCc3ccncc3)ccc21 [Motesanib]
The essentials: (§2)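 Viability is treated-well nuclei as a fraction of vehicle-well nuclei, reported as the median across plates. Before counting, lung cancer cell lines were kept overnight at 37 °C in 1536-well plates, pinned with five √10-spaced library-drug doses on vehicle-anchored plates, and left 5 days without medium change, then fixed, permeabilised and Hoechst-stained in one step, imaged at 4× and counted by MetaXpress. A plate passed only if control CV was below 25% and at least one doubling occurred.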

Compound in assay [1]: C[C@@]1(C(=O)Nc2ccc(F)nc2)CCCN1c1nc(Nc2cc(C3CC3)n[nH]2)c2cccn2n1
The essentials:
as §2

Regarding UMC-11, the relative viability in the assay with Motesanib + Palbociclib (first compound 0.01 µM) stood at 0.317; with Motesanib + Palbociclib (first compound 0.03162 µM), 0.302; in the assay with Motesanib + Palbociclib (first compound 0.1 µM), 0.314; with Motesanib + Palbociclib (first compound 0.3162 µM), 0.394; with Motesanib + Palbociclib (first compound 1 µM), 0.347; in the assay with Motesanib + Tozasertib (first compound 0.01 µM) it was 0.205. Further, the relative viability with Motesanib + Tozasertib (first compound 0.03162 µM) stood at 0.213; in the assay with Motesanib + Tozasertib (first compound 0.1 µM), 0.216; with Motesanib + Tozasertib (first compound 0.3162 µM), 0.207; in the assay with Motesanib + Tozasertib (first compound 1 µM) it was 0.228; in the assay with Motesanib (0.01 µM), 0.951; with Motesanib (0.03162 µM) it was 1.07. In addition, the relative viability in the assay with Motesanib (0.1 µM) came to 0.872; with Motesanib (0.3162 µM) it was 1; with Motesanib (1 µM), 1.13; in assay [1] (0.04 µM), 0.981; in assay [1] (0.1265 µM), 1.03; in assay [1] (0.4 µM), 0.907. Further, in assay [1] (1.265 µM), the relative viability stood at 0.797.
